Assay results from US20070015823A1, “Ambruticin VS compounds” (priority 2004, published 2007).
Values after ≈ are worked out from the molar mass of the structure shown. Read-outs that look alike come from different tables or passages of the source.

What was measured:
Microsporum gypseum = test: Dermatophyte broth microdilution, NCCLS M38-A; assay type: cell-based
Microsporum canis = test: Dermatophyte broth microdilution, NCCLS M38-A; assay type: cell-based
Trichophyton rubrum = test: Dermatophyte broth microdilution, NCCLS M38-A; assay type: cell-based
A. flavus ATCC 204304 = test: Broth microdilution antifungal susceptibility, NCCLS M38-A; assay type: cell-based, Aspergillus flavus; settings: minimal concentration inhibiting >95% growth; average of at least two assays (except I-l and I-x)
Epidermophyton floccosum = test: Dermatophyte broth microdilution, NCCLS M38-A; assay type: cell-based
Cryptococcus neoformans = test: Broth microdilution antifungal susceptibility, NCCLS M38-A; settings: 50% growth inhibition, range = minimum and maximum of multiple assays; for MIC C. neoformans 97-14: strain 97-14; for MIC C. neoformans 11239: strain 11239; for MIC C. neoformans 11240: strain 11240
[1] = tested on: Trichophyton interdigitale; test: Dermatophyte broth microdilution, NCCLS M38-A; assay type: cell-based
A. fumigatus ATCC 204305 = test: Broth microdilution antifungal susceptibility, NCCLS M38-A; assay type: cell-based, Aspergillus fumigatus; settings: minimal concentration inhibiting >95% growth; average of at least two assays (except I-l and I-x)
[2] = tested on: Trichophyton mentagrophytes; test: Dermatophyte broth microdilution, NCCLS M38-A; assay type: cell-based
Blastomyces dermatitidis = test: Broth microdilution antifungal susceptibility, NCCLS M38-A; assay type: cell-based
Histoplasma capsulatum = assay type: cell-based

Compound	MIC0 Mg (Microsporum gypseum)	MIC0 Mc (Microsporum canis)	MIC0 Tr (Trichophyton rubrum)	MIC0 A. flavus ATCC 204304 (A. flavus ATCC 204304)	MIC0 Ef (Epidermophyton floccosum)	MIC C. neoformans 97-14 (Cryptococcus neoformans)	MIC C. neoformans 11239 (Cryptococcus neoformans)	MIC C. neoformans 11240 (Cryptococcus neoformans)	MIC0 Ti [1]	MIC0 A. fumigatus ATCC 204305 (A. fumigatus ATCC 204305)	MIC0 Tm [2]	MIC B. dermatitidis Gu (Blastomyces dermatitidis)	MIC B. dermatitidis Kr (Blastomyces dermatitidis)	MIC B. dermatitidis V (Blastomyces dermatitidis)	MIC H. capsulatum G217B (Histoplasma capsulatum)	MIC H. capsulatum GS20 (Histoplasma capsulatum)	also measured
CC[C@H]1O[C@@H](/C(C)=C/[C@H](C)/C=C/[C@H]2[C@@H](C)[C@@H]2/C=C/[C@@H]2O[C@H](CC(=O)O)C[C@H](N(C)CC)[C@H]2O)CC=C1C [I-a, (5S,6R)-5-(N-ethyl-methylamino)-6-hydroxypolyangioic acid]	2.51 µg/mL	1.41 µg/mL	2 µg/mL	2.0 µg/mL	4 µg/mL	1 µg/mL (≈ 1.94 µM)	2 µg/mL (≈ 3.88 µM)	2 µg/mL (≈ 3.88 µM)	2 µg/mL	2.0 µg/mL	5.65 µg/mL	–	–	–	–	–	–
CC[C@H]1O[C@@H](/C(C)=C/[C@H](C)/C=C/[C@H]2[C@@H](C)[C@@H]2/C=C/[C@@H]2O[C@H](CC(=O)O)C[C@H](NC3CCCC3)[C@H]2O)CC=C1C [I-d, (5S,6R)-5-(cyclopentylamino)-6-hydroxypolyangioic acid]	2.51 µg/mL	2.82 µg/mL	3.17 µg/mL	8.0 µg/mL	4 µg/mL	–	–	–	2.51 µg/mL	8.0 µg/mL	8 µg/mL	>12.5 µg/mL	>12.5 µg/mL	>12.5 µg/mL	<0.19 µg/mL	<0.19 µg/mL	–
CC[C@H]1O[C@@H](/C(C)=C/[C@H](C)/C=C/[C@H]2[C@@H](C)[C@@H]2/C=C/[C@@H]2O[C@H](CC(=O)O)C[C@H](NC3CCC3)[C@H]2O)CC=C1C [I-jj, (5S,6R)-5-(cyclobutylamino)-6-hydroxypolyangioic acid]	1.25 µg/mL	8 µg/mL	3.17 µg/mL	5.33 µg/mL	5.65 µg/mL	0.125 µg/mL (≈ 0.237 µM)	2 µg/mL (≈ 3.79 µM)	2 µg/mL (≈ 3.79 µM)	2.51 µg/mL	6.67 µg/mL	>8 µg/mL	–	–	–	–	–	–
CCC(=O)N[C@H]1C[C@@H](CC(=O)O)O[C@@H](/C=C/[C@H]2[C@H](C)[C@@H]2/C=C/[C@@H](C)/C=C(\C)[C@H]2CC=C(C)[C@@H](CC)O2)[C@@H]1O [I-l, (5S,6R)-5-propionamido-6-hydroxypolyangioic acid]	0.79 µg/mL	1.41 µg/mL	1.58 µg/mL	16 µg/mL	2.82 µg/mL	–	–	–	0.79 µg/mL	8 µg/mL	5.66 µg/mL	–	–	–	–	–	–
CCN[C@H]1C[C@@H](CC(=O)O)O[C@@H](/C=C/[C@H]2[C@H](C)[C@@H]2/C=C/[C@@H](C)/C=C(\C)[C@H]2CC=C(C)[C@@H](CC)O2)[C@@H]1O [I-mm, (5S,6R)-5-(ethylamino)-6-hydroxypolyangioic acid]	0.79 µg/mL	0.7 µg/mL	1.25 µg/mL	0.93 µg/mL	1.41 µg/mL	0.125 µg/mL (≈ 0.249 µM)	0.25 µg/mL (≈ 0.498 µM)	0.0625 µg/mL (≈ 0.125 µM)	0.79 µg/mL	1.28 µg/mL	2.82 µg/mL	>12.5 µg/mL	>12.5 µg/mL	>12.5 µg/mL	<0.19 µg/mL	<0.19 µg/mL	–
CC[C@H]1O[C@@H](/C(C)=C/[C@H](C)/C=C/[C@H]2[C@@H](C)[C@@H]2/C=C/[C@@H]2O[C@H](CC(=O)N3CCC3)C[C@H](N(C)C)[C@H]2O)CC=C1C [I-pp, (5S,6R)-1-(azetidin-1-yl)-5-dimethylamino-6-hydroxypolyangi-1-one]	–	–	–	2 µg/mL	–	–	–	–	–	4 µg/mL	–	–	–	–	–	–	MIC0 Mg (Microsporum gypseum; Microsporum gypseum (3 strains), 95% growth inhibition): 2.51 µg/mL; MIC0 Mc (Microsporum canis; Microsporum canis (2 strains), 95% growth inhibition): 1 µg/mL; MIC0 Tr (Trichophyton rubrum; Trichophyton rubrum (3 strains), 95% growth inhibition): ¼; MIC0 Ef (Epidermophyton floccosum; Epidermophyton floccosum (2 strains), 95% growth inhibition): 2.82 µg/mL; MIC0 Ti ([1]; Trichophyton interdigitale (3 strains), 95% growth inhibition): 5.03 µg/mL; MIC0 Tm ([2]; Trichophyton mentagrophytes (2 strains), 95% growth inhibition): 4 µg/mL
C=CCNC(=O)N(C)[C@H]1C[C@@H](CC(=O)O)O[C@@H](/C=C/[C@H]2[C@H](C)[C@@H]2/C=C/[C@@H](C)/C=C(\C)[C@H]2CC=C(C)[C@@H](CC)O2)[C@@H]1O [I-q, (5S,6R)-5-(3-allyl-1-methylureido)-6-hydroxypolyangioic acid]	>8 µg/mL	>8 µg/mL	>8 µg/mL	32 µg/mL	>8 µg/mL	–	–	–	12.69 µg/mL	16 µg/mL	>8 µg/mL	–	–	–	–	–	–
CCCN(C)[C@H]1C[C@@H](CC(=O)O)O[C@@H](/C=C/[C@H]2[C@H](C)[C@@H]2/C=C/[C@@H](C)/C=C(\C)[C@H]2CC=C(C)[C@@H](CC)O2)[C@@H]1O [I-t, (5S,6R)-5-(N-propyl-methylamino)-6-hydroxypolyangioic acid]	2 µg/mL	2.82 µg/mL	1.58 µg/mL	2.25 µg/mL	1.41 µg/mL	0.5 µg/mL (≈ 0.944 µM)	1 µg/mL (≈ 1.89 µM)	0.5 µg/mL (≈ 0.944 µM)	1.25 µg/mL	2.25 µg/mL	11.31 µg/mL	>12.5 µg/mL	>12.5 µg/mL	>12.5 µg/mL	<0.19 µg/mL	<0.19 µg/mL	–
CCCCN(C)[C@H]1C[C@@H](CC(=O)O)O[C@@H](/C=C/[C@H]2[C@H](C)[C@@H]2/C=C/[C@@H](C)/C=C(\C)[C@H]2CC=C(C)[C@@H](CC)O2)[C@@H]1O [I-u, (5S,6R)-5-(N-butyl-methylamino)-6-hydroxypolyangioic acid]	4 µg/mL	5.65 µg/mL	3.17 µg/mL	4.5 µg/mL	2.82 µg/mL	1 µg/mL (≈ 1.84 µM)	2 µg/mL (≈ 3.68 µM)	2 µg/mL (≈ 3.68 µM)	3.17 µg/mL	4.25 µg/mL	11.31 µg/mL	>12.5 µg/mL	>12.5 µg/mL	>12.5 µg/mL	<0.19 µg/mL	<0.19 µg/mL	–
CC[C@H]1O[C@@H](/C(C)=C/[C@H](C)/C=C/[C@H]2[C@@H](C)[C@@H]2/C=C/[C@@H]2O[C@H](CC(=O)O)C[C@H](N(C)C)[C@H]2O)CCC1C (stereo partly shown) [IV-b, 20,21-dihydro ambruticin VS-3]	1.25 µg/mL	1.41 µg/mL	2.51 µg/mL	0.44 µg/mL	1.41 µg/mL	–	–	–	2.51 µg/mL	0.88 µg/mL	4 µg/mL	–	–	–	–	–	–
